Results from US20250025465A1, “WT-IDH1 INHIBITION USING A COVALENT AND BRAIN-PENETRANT SMALL MOLECULAR INHIBITOR FOR FERROPTOSIS INDUCTION IN HIGH-GRADE GLIOMA” (Northwestern University, priority 2021, published 2025).
pEC50, pIC50: −log10 of the molar value. Entries after “also recorded” stand apart in the source; their conditions may differ. Read-outs that look alike come from different tables or passages of the source.

What was measured:
wt-IDH1 [1] = target: T1, wt-IDH1 (Homo sapiens, UniProt O75874); test: cellular wt-IDH1 inhibition; format: cell-based; parameters: endogenous in cells
Description: (§1) A therapeutic strategy for the pharmacological inhibition of wt-IDH1 has been devised.
Target sequence in this assay (O75874 2-414 limits assumed): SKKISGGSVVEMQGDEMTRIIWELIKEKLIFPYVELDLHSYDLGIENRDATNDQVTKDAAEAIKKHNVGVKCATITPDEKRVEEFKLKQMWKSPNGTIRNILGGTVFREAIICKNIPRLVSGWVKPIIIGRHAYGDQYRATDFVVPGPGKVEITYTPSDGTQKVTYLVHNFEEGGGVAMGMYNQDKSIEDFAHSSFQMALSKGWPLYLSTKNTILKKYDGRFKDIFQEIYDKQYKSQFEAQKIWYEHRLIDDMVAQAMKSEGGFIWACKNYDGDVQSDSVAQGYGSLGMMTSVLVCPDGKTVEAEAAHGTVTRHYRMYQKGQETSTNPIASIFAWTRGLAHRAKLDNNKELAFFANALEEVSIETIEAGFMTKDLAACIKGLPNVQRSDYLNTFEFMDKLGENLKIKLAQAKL

wt-IDH1 [2] = target: T1, wt-IDH1; test: cell-free wt-IDH1 enzyme inhibition; format: biochemical; settings: read-out: EC50, blocks wt-IDH1
Description: as §1
(§2) The compound 13i was developed using a high-throughput screen of a proprietary library, which encompasses 750,000 compounds. During the screen, the investigators identified a hit series, centered around compound wt-IDH1i-1, which contained a large cluster of α,β-unsaturated enones^9. As indicated by the wt-IDH1: wt-IDH1i-1 crystal structure, wt-IDH1-1i bound to a fully closed wt-IDH1 enzyme and competed with NADPH for access to the wt-IDH1 active site via formation of a covalent adduct and the […] trapping of H315 located within the NAPDH binding site^9. […] Blastp searches identified wt-IDH2 as the only NADPH-dependent enzyme that contained an NADPH binding site with significant similarity to the NADPH binding pocket found in wt-IDH1. […] Of note, while H315 and D375 are conserved between wt-IDH1 and wt-IDH2, other important amino acids, including those adjacent to D375 that form a lipophilic groove (K374/L383/A378) required for 13i binding are different, and are likely to mediate compound selectivity.
Target sequence in this assay (O75874 whole entry): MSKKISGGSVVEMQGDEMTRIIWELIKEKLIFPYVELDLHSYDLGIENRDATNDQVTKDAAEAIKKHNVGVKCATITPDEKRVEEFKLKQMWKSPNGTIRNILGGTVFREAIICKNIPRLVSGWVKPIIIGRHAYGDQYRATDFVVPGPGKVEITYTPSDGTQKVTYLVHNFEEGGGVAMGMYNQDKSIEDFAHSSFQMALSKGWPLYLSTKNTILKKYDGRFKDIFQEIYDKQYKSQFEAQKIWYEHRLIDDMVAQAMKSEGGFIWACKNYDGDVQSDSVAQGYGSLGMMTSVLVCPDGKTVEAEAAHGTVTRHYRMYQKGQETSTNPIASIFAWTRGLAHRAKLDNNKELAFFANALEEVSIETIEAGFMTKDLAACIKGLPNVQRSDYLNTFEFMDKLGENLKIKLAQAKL

HGG glioma cells = test: SYTOX green staining of glioma cells (plasma membrane rupture, ferroptosis); format: cell-based; settings: for ferroptosis / plasma membrane rupture (SYTOX green positivity): compared to vehicle control, FIG. 11; for rescue of 13i treatment effect by co-treatment: co-treatment with 13i, SYTOX green, FIG. 11A-C
HGG PDX = test: adult HGG PDX model treated with 13i and RT; format: in vivo, mice; settings: for enhancement of RT anti-tumor effect: i.p. administration, RT 2 Gy x 5
Description: (§3) (A). Treatment schedule. (B). […]. (C). Kaplan-Meyer survival benefit analysis. (D) H&E stainings of normal brain from PDX mice treated with RT+13i. *p<0.05.
(§4) . Toxicity to normal brain structures was not observed, as indicated by H&E stainings of tumor-adjacent normal cortex, hippocampus and cerebellum (FIG. 12E).

recombinant wt-IDH2 = target: T2, recombinant wt-IDH2 (Homo sapiens, UniProt P48735); test: NADPH production by recombinant wt-IDH2; format: biochemical; settings: FIG. 6
T2 sequence (P48735 40-452): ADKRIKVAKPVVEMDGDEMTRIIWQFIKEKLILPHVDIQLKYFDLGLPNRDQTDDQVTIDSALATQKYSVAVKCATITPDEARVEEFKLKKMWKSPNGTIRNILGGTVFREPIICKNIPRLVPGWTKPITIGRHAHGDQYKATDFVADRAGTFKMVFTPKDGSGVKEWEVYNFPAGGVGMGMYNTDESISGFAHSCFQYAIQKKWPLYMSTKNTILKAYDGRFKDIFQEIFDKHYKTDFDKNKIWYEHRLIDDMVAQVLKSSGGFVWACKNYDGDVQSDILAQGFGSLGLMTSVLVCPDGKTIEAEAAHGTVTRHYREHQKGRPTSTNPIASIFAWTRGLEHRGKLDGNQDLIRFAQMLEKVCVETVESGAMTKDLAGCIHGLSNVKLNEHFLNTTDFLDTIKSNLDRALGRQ
Description: FIG. 6. wt-IDH1i-13 is a selective covalent wt-IDH1 inhibitor.
as §2

[3] = see Chung et al.; cited from earlier work
[4] = H&E staining of normal brain from PDX mice treated with RT+13i; format: in vivo; settings: H&E of tumor-adjacent normal cortex, hippocampus and cerebellum
Description: as §3, §4

[5] = in vivo effects of mt-IDH1 inhibitors in HGG
Description: (§5) As these mt-IDH1-specific inhibitors recognize an allosteric site within the enzyme dimerization domain, many of these compounds show ‘off-target’ effect against wt-IDH1, as elucidated in cell-free enzyme repression assays.

[6] = system: patient-derived HGG cells; test: growth and cell death in patient-derived HGG cells; format: cell-based
Description: as §5

U87MG cells = test: clonogenic growth assay, RT enhancement upon wt-IDH1 knockdown; format: cell-based; settings: incubation with antioxidant precursor, FIG. 5A
Protocol: FIG. 5. wt-IDH1 inactivation enhances RT anti-tumor effect (A). RT enhancement ratio, as assessed via clonogenic growth assay in U87MG cells, upon genetic wt-IDH1inactivation, in the presence or absence of the ROS scavenger N-acetyl […] (NAC). (B). wt-IDH1 in doxy-treated xenogafts. (C). Tumor volume in mice subcutaneously implanted with U87MG cells carrying a doxy-inducible shIDH1 were treated with doxy and irradiated with a total of 14 Gy administered in 7 fractions of 2 Gy, and tumor volumes were measured. *p<0.05. (D.) Kaplan-Meyer estimates for tumor tripling, *p<0.005 vs. control; **p<0.001 vs. control, RT and doxy. […] Knockdown of wt-IDH1 decreased HGG cell line NADPH concentrations by 50-60%, and similarly depleted numerous NADPH-dependent metabolites, including the antioxidant glutathione (GSH). […] To determine whether combining RT and wt-IDH1 knockdown had beneficial anti-HGG effects in vivo, we established flank xenografts carrying a doxycycline (doxy)-inducible shRNA directed against wt-IDH1. A flank model was used due to the variable CNS penetrance of doxy. Immunoblotting confirmed that administration of doxy had the intended effects on wt-IDH1 expression in both inducible shIDH1 and shCo xenografts (FIG. 5B).

wt-IDH1 [7] = target: T1, wt-IDH1; settings: covalent engagement with the NADPH pocket; from the screen of Jakob et al.; read-out: cell-free EC50; cited from earlier work
Target sequence in this assay (O75874 whole entry): as the sequence (O75874 whole entry) above

C[C@@H]1C(=O)C(C#N)=C[C@]2(c3ccccc3)c3nc(Nc4ccccc4)ncc3CC[C@@H]12 [13i, (6aS,7S,10aR)-2-anilino-7-methyl-8-oxo-10a-phenyl-5,6,6a,7-tetrahydrobenzo[h] quinazoline-9-carbonitrile]
pIC50 (wt-IDH1 [1]): 5.77 to 6.10 | pEC50 (wt-IDH1 [2]): 7.85 | ferroptosis / plasma membrane rupture (SYTOX green positivity) (HGG glioma cells): induced plasma membrane rupture; also recorded: promotes ferroptosis | ferroptosis / plasma membrane rupture (SYTOX green positivity) (HGG glioma cells; listed as wt-DIH1i-13): promotes ferroptosis | tumor volume / progression (bioluminescence) (HGG PDX; i.p. 10 mg/kg M-F, in combination with RT 2 Gy x 5, 10 mg/kg): highly reduced tumor volume; also recorded: reduces the progression | survival (HGG PDX; i.p. 10 mg/kg M-F, in combination with RT 2 Gy x 5, versus vehicle, 10 mg/kg): increased survival; also recorded: extends the survival | enhancement of RT anti-tumor effect (HGG PDX): enhancement of RT anti-tumor effect | enhancement of RT anti-tumor effect (HGG PDX; listed as wt-DIH1i-13): enhances RT anti-tumor effect in vivo | fold higher EC50 against recombinant wt-IDH2 compared to wt-IDH1 (recombinant wt-IDH2): 100 fold | brain penetrance [3]: brain-penetrant | toxicity to normal brain structures [4]: not observed

COc1c(C)cc(NC(=O)c2nn(Cc3ccc(F)cc3)c3c2CN(C(=O)c2ccc[nH]2)C[C@]3(C)C(N)=O)cc1C [GSK864]
in vivo effects [5]: moderate | drug concentrations sufficient to impact growth and cell death [6]: in the high micromolar range

CC(=O)N[C@@H](CS)C(=O)O [NAC, N-acetyl cysteine, reference compound]
reversal of radiosensitization conferred by wt-IDH1 knockdown (U87MG cells): nearly completely reversed | rescue of 13i treatment effect by co-treatment (HGG glioma cells): rescued 13i treatment effect

CCOC(=O)c1ccc(NC2CCCCC2)c(N)c1 [ferrostatin, reference compound]
rescue of 13i treatment effect by co-treatment (HGG glioma cells): rescued 13i treatment effect

C[C@@H]1C(=O)C(C#N)=C[C@]2(C)c3nc(Nc4ccccc4)ncc3CC[C@@H]12 [wt-IDH1i-1, (6aS,7S,10aR)-2-anilino-7,10a-dimethyl-8-oxo-5,6,6a,7-tetrahydrobenzo[h] quinazoline-9-carbonitrile]
pEC50 (wt-IDH1 [7]): 7.31
